# Laboratory results reported in patent US20210277003A1, “OGA INHIBITOR COMPOUNDS” (Janssen Pharmaceutica NV, priority 2018, published 2021).
# Assays:
# [1] = molecular target: T1, recombinant human Meningioma Expressed Antigen 5 (MGEA5), also referred to as O-GlcNAcase (OGA) (Homo sapiens, UniProt O60502); assay: OGA biochemical assay: inhibition of hydrolysis of fluorescein mono-ß-D-N-Acetyl-Glucosamine (FM-GlcNAc), fluorescence readout; conditions: FM-GlcNAc substrate; for Emax: read-out: Enzymatic Emax (%); for IC50: read-out: Enzymatic hOGA, pIC50 (converted)
# T1 construct: Full length OGA enzyme was purchased at OnGene (cat #TP322411); purchased OnGene (so in the source)
# T1 sequence (O60502 1-916): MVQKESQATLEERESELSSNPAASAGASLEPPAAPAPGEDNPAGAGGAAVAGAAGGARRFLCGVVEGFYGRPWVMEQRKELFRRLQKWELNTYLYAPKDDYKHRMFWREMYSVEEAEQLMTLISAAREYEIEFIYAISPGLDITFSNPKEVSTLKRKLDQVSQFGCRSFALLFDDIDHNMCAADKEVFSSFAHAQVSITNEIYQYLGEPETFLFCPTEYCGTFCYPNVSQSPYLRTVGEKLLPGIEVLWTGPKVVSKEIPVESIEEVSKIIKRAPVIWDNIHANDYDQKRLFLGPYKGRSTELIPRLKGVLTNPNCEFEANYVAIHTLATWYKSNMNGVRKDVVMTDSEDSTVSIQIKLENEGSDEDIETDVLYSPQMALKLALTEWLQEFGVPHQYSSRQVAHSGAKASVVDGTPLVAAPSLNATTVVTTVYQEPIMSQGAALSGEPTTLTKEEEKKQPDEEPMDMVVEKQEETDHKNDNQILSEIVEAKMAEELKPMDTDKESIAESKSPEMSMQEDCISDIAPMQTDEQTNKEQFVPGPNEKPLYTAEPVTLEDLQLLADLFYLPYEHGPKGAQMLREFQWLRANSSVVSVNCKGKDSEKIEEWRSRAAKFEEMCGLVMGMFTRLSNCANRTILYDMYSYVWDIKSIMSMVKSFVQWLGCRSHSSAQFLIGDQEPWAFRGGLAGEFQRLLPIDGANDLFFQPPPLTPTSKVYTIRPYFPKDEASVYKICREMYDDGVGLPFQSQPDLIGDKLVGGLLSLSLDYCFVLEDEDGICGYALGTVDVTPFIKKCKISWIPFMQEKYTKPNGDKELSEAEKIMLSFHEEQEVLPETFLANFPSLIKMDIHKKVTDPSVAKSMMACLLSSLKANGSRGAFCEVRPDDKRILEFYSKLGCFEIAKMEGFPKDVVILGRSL
# Summary of the method: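 Full-length recombinant human OGA (2 nM) was pre-incubated with compound for 60 min, then reacted with 100 uM FM-GlcNAc for 6 h at room temperature in 200 mM citrate/phosphate pH 7.2 with 0.005% Tween-20. Reactions were stopped with pH 11.0 carbonate and fluorescein read at 485/538 nm. IC50 and Hill coefficient came from curve fitting.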
# [2] = tested on: OGA in HEK293 cells inducible for P301L mutant human Tau (isoform 2N4R); assay: OGA cellular assay: immunocytochemical detection of O-GlcNAcylated proteins (CTD110.6 antibody); format: cell-based; conditions: 6 hours incubation; for Emax / EC50: Homo sapiens, HEK293, 6 h; for EC50: read-out: Cellular hOGA, pEC50 (converted)
# Summary of the method: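 Cells seeded 2 days ahead in low-glucose assay medium and exposed to compounds for 6 h at 0.2% DMSO, then PFA-fixed and immunostained. Signal is 488 nm intensity from imaging (9 fields/well), with Hoechst nuclei counts as a toxicity check. IC50 from non-linear regression, with 200 uM Thiamet G per plate as maximum inhibition.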
Structure (SMILES),Enzymatic hOGA; pIC50 [1],Emax [1],Emax ([2]; maximum = Thiamet G 200 uM),EC50 [2],IC50 [1],Enzymatic Emax (%) [1],Cellular hOGA; pEC50 [2],Cellular Emax (%) ([2]; maximum = Thiamet G 200 uM)
CC[C@@H](O)Cn1ccc2c(Nc3c(C)cc(F)cc3C)nccc21 [Compound 145a],7.79,100%,81.2%,0.0562 µM,,,,
Cc1ccnc(C)c1Nc1nccc2c1ccn2CC(C)O (centres unmarked) [Compound 144],7.25,100%,79%,0.182 µM,,,,
Cc1cc(Cl)cc(C(F)(F)F)c1Nc1nccc2c1ccn2CC(C)(F)F [Compound 129],8.59,100%,104%,0.00741 µM,,,,
Cc1cnc(-n2ccc3c(Nc4c(Cl)cc(F)cc4Cl)nccc32)o1 [Compound 183],,95.3%,13.9%,> 1 µM,0.501 µM,,,
CCCCn1ccc2c(Nc3c(C)ccc(C(=O)N4CCOCC4)c3C)nccc21 [Compound 13],8.49,105%,87%,0.0282 µM,,,,
Clc1cccc(Cl)c1Nc1nccc2c1ccn2CC1CC1 [Compound 69],,102%,82%,0.055 µM,0.00339 µM,,,
CC(C)C(F)(F)Cn1ccc2c(Nc3c(Cl)cccc3Cl)nccc21 [Compound 196],,104%,91.7%,0.00851 µM,0.00151 µM,,,
Cc1cc(C(F)(F)F)cc(C)c1Nc1nccc2c1ccn2CC(C)(F)F [Compound 130],8.6,102%,93.7%,0.00316 µM,,,,
CCCCn1ccc2c(Nc3c(Cl)cc4c(c3C)OCCO4)nccc21 [Compound 76],,101%,100%,0.0234 µM,0.00295 µM,,,
Cc1cncc(Cl)c1Nc1nccc2c1ccn2CC1CC1 [Compound 110],7.54,100%,48%,0.363 µM,,,,
CCCCn1ccc2c(Nc3c(C)cc(C(=O)NC)cc3C)nccc21 [Compound 57],,102%,107%,0.011 µM,0.00457 µM,,,
"Cc1ccnc(C)c1Nc1nccc2c1ccn2CC1CCO1 (single isomer, unassigned) [Compound 25b]",,,,,0.00457 µM,101%,7.63,90%
Fc1cc(Cl)c(Nc2nccc3c2ccn3CC2CCOC2)c(Cl)c1 (centres unmarked) [Compound 139],7.8,104%,69.7%,0.398 µM,,,,
FC1(F)CC(Cn2ccc3c(Nc4c(Cl)cccc4Cl)nccc32)C1 [Compound 91],8,102%,73%,0.0794 µM,,,,
Cc1cc(-c2cnn(C)c2)cc(C)c1Nc1nccc2c1ccn2CC(C)(F)F [Compound 154],8.67,101%,86.2%,0.00347 µM,,,,
CCCCn1ccc2c(Nc3c(C)ccnc3C)ncc(F)c21 [Compound 80],,100%,73%,0.372 µM,0.0288 µM,,,

Structure (SMILES),Enzymatic hOGA; pIC50 [1],Emax [1],Emax ([2]; maximum = Thiamet G 200 uM),EC50 [2],IC50 [1],Enzymatic Emax (%) [1],Cellular hOGA; pEC50 [2],Cellular Emax (%) ([2]; maximum = Thiamet G 200 uM)
Cc1cc(Cl)cc(S(C)(=O)=O)c1Nc1nccc2c1ccn2CC1CC(F)(F)C1 [Compound 173],,101%,88.5%,0.158 µM,0.0234 µM,,,
Cc1cncc(C)c1Nc1nccc2c1ccn2CCC1CC1 [Compound 49],,103%,63%,0.0794 µM,0.0117 µM,,,
CCCCn1ccc2c(Nc3c(C)ccc4cccnc34)nccc21 [Compound 15],7.18,101%,71%,0.562 µM,,,,
Cc1cc(F)cc(F)c1Nc1nccc2c1ccn2CC(F)(F)C(C)C [Compound 186],,102%,85.9%,0.0245 µM,0.00427 µM,,,
Clc1cccc(Cl)c1Nc1nccc2c1ccn2CCC1COC1 [Compound 122],7.72,,84.1%,0.263 µM,,103.22%,,
Cc1cc(OC(F)F)nc(C)c1Nc1nccc2c1ccn2CC1CC(F)(F)C1 [Compound 146],7.56,101%,76.3%,0.0457 µM,,,,
Cc1ccnc(C)c1Nc1nccc2c1ccn2CC(F)(F)C1CC1 [Compound 23],8.84,102%,97%,0.00295 µM,,,,
CCC(F)(F)Cn1ccc2c(Nc3c(C)ccnc3C)nccc21 [Compound 27],,104%,112%,0.00759 µM,0.00224 µM,,,
Cc1ccnc(OC(F)F)c1Nc1nccc2c1ccn2CC1CC(F)(F)C1 [Compound 114],7.03,100%,49.6%,0.871 µM,,,,
Cc1cc(F)cc(C(C)C)c1Nc1nccc2c1ccn2CC(C)(F)F [Compound 148],8.89,102%,87.5%,~0.00479 µM,,,,
CCC(F)Cn1ccc2c(Nc3c(C)ccnc3C)nccc21 (centres unmarked) [Compound 78],,103%,96%,0.00794 µM,0.00324 µM,,,
Cc1ccnc(C)c1Nc1nccc2c1ccn2CC1CCOC1 (centres unmarked) [Compound 140],7.08,103%,63.9%,0.603 µM,,,,
Cc1cc(OC(F)F)nc(C)c1Nc1nccc2c1ccn2CC(C)(F)F [Compound 149],8.58,101%,96.4%,0.0107 µM,,,,
CCCCn1ccc2c(Nc3c(C)cncc3C(F)(F)F)nccc21 [Compound 86],,101%,71%,0.309 µM,0.0219 µM,,,
CC[C@@H](O)Cn1ccc2c(Nc3c(C)cc(C#N)cc3Cl)nccc21 [Compound 123a],7.56,102%,63.8%,0.437 µM,,,,
Cc1cccc(S(C)(=O)=O)c1Nc1nccc2c1ccn2CCC1CC1 [Compound 195],,102%,95.3%,0.0251 µM,0.00135 µM,,,
